Entries after “also recorded” stand apart in the source; their conditions may differ.
Assays:
Assay type in all cases: physicochemical
[1] = Surface pressure isotherms and Brewster angle microscopy of films on a Langmuir trough; conditions: PBS subphase, 35±1° C.
Procedure: (§1) The lipid components and tailored mixtures dissolved in chloroform, or alternatively, the formulations undergoing characterization studies were spread onto the air-buffer interface of a Langmuir trough, either a Mini trough (KSV, Helsinki, Finland) or a Large trough (KSV NIMA, Biolin Scientific, Espoo, Finland), which was filled with PBS buffer. The samples were allowed to equilibrate for 3 min before starting the measurements. The surface pressure was measured using a Wilhelmy plate, the surface potential was measured using a KSV NIMA Surface Potential Sensor (Espoo, Finland) when relevant and Brewster angle microscopy (BAM) images were captured using a KSV NIMA microBAM (Espoo, Finland) instrument. The films were compressed at a constant rate of 5 or 10 mm/min and the subphase temperature was maintained at 35±1° C. The measurements were performed in an acrylic box under an ozone-free atmosphere to prevent undesired oxidation of the lipids. An ozone-free atmosphere was generated by passing dry air through ODS-3P ozone destruct unit (Ozone solutions, Hull, Iowa) and into the enclosure at a rate of 76 l/min.

[2] = Evaporation resistance / evaporation reduction of lipid films (modified Langmuir and Schaefer method); conditions: for evaporation resistance of phospholipid films: FIG. 13C; for evaporation resistance of OAHFA films: individual lipid film on PBS subphase, 35±1° C., FIG. 2
Procedure: as §1
The adaptive features of the formulations were uncovered through studying the spreading capabilities of the lipid films over compression-expansion cycles using the Langmuir setup. In more detail, the volume employed of each formulation was the volume required to observe a response in the surface pressure isotherm over one compression-expansion cycle. Altogether, the films were subjected to twenty compression-expansion cycles employing a 50 mm/min. compression/expansion rate and the changes in the surface pressure isotherms were monitored as described above. Evaporation resistance was determined by a modified Langmuir and Schaefer method (Langmuir et al, 1943, J Franklin Inst, 235, 119-162). The measurements were conducted by compressing the film to a specific mean molecular area, ranging between 2-40 Å^2/molecule (for individual compounds), or a specified area (for formulations) and placing a tailored desiccant cartridge, with a water-permeable membrane, approximately 2 mm above the aqueous surface. The commercial silica gel containing desiccant cartridges (SP Industries, Warminster, PA) were modified by replacing the membrane with a Millipore Immobilon-P PVDF membrane (450 nm pore size, Bedford, MA). The desiccant cartridge was fixed in position for 5 minutes and the mass of the absorbed water was determined by gravimetric techniques. In order to take into account the water absorbed from the air inside the enclosure, a second background measurement was conducted in parallel inside the enclosed acrylic box. From the measurements, the evaporation resistance was calculated with the equation (1).
The terms used in the equation are as follows: Adesicant=area of the desiccant cartridge; • t=measuring time; (w-w0)=water concentration difference between the aqueous surface and the surface of the desiccant cartridge; m(I)=water amount absorbed in the presence of the lipid film; mPBS(0)=water amount absorbed in the absence of the lipid film; Δmtot=mass of evaporated water during the measurement; ti=time point D=diffusion coefficient; ρ=water density; ATrough=area of the Langmuir Trough.
The evaporation reduction was determined as the total reduction of water absorbed by a desiccant cartridge when a lipid film was covering the subphase versus the situation when the lipid film was absent. Equation (2) was utilized in the calculations.

[3] = Differential scanning calorimetry (DSC) of active components, phospholipids and liposomal formulations; conditions: heating 10° C./min, triplicate; for Peak Tm1 ± SD / Onset Tm2 ± SD / Peak Tm2 ± SD: in °C (unit assumed)
Procedure: Differential scanning calorimetry (DSC 2500 with an RCS90 cooling unit; TA instruments, Newcastle, DE, USA) was utilized to study the thermal properties of the active compounds. Nitrogen (N2) was utilized as the purge gas at rate of 50 mL/min during the measurements. […] of the active components were placed into aluminum pans with manually made pin holes (DSC Consumables incorporated, Austin, Minnesota, USA). The samples were subsequently sealed and analyzed with DSC utilizing the TRIOS® software (TA instruments, Newcastle, DE, USA). All results were compared to an empty reference pan containing a pin hole. Each measurement was performed in triplicate. Briefly, the samples were cooled to 0° C., then heated from 0° C. to 75° C. at a rate of 10° C./min. Then, the samples were kept isothermally at 75° C. for 10 min, after which they were equilibrated to −50° C. at an uncontrolled rate. Ultimately, the samples were heated again to 75° C. at a rate of 10° C./min.
The phospholipid bilayer phase transition behavior was studied to assess whether successful integration of the active components into the phospholipid bilayer had been achieved or not. The studies were performed in a similar fashion as described for active components above. In this case, 20 μL of a formulation was pipetted into the aluminum pans (DSC Consumables incorporated, Austin, Minnesota, USA), which were subsequently sealed and analyzed with DSC employing the TRIOS® software (TA instruments, Newcastle, DE, USA). The samples were cooled and equilibrated to 5° C., then heated from 5° C. to 70-85° C. at a rate of 10° C./min and the results were compared to the reference pan containing the liquid used to hydrate the lipid film. All prepared liposomal formulations which viscosity were low enough to be pipetted, were analyzed by DSC and compared to the thermograms obtained from liposomes containing only the PC-component and the thermograms obtained for the active components.

Question: With `CCCCCCCCCCCCCCCCCC(=O)OC[C@H](COP(=O)([O-])OCC(O)CO)OC(=O)CCCCCCCCCCCCCCCCC.[Na+]` (mixture of isomers) [18:0 PG, 1,2-distearoyl-sn-glycero-3-phospho-rac-(1-glycerol) sodium salt] as the compound, how does the “phase behaviour of the film (surface pressure isotherm, BAM)” value (from here on “phase behaviour of the film”) ([1]; sodium salt) read?
Answer: suitable properties; also recorded: phase transition occurring at a low surface pressure

Question: What about the “evaporation resistance of phospholipid films” value [2] of the same compound?
Answer: highest evaporation resistance

Question: With `CCCCCCCCCCCCCCCCCCO` [1-Octadecanol, octadecanol] as the compound, how does the “Onset Tm1 ± SD” value [3] read?
Answer: 56.49 ± 0.49

Question: What about the “Peak Tm1 ± SD” value [3] of the same compound?
Answer: 57.61 ± 0.22

Question: And the “evaporation resistance of long chain fatty alcohols” value ([2]; FIG. 5)?
Answer: most promising species

Question: With `CCCCCCCC/C=C\CCCCCCCC(=O)OCCCCCCCCCCCC(=O)O` [12:0/18:1-OAHFA, 12-(oleoyloxy)dodecanoic acid] as the compound, how does the “evaporation resistance of OAHFA films” value [2] read?
Answer: significantly weaker evaporation-resistant properties

Question: For `CCCCCCCC/C=C\CCCCCCCC(=O)OCCCCCCCCCCCCCCC(=O)O` [15:0/18:1-OAHFA, 15-(oleoyloxy)pentadecanoic acid], which “evaporation resistance of OAHFA films” value [2] is on record?
Answer: significantly weaker evaporation-resistant properties

Question: With `CCCCCCCCCCCCCCCC(=O)OC[C@H](COP(=O)(O)OCCN)OC(=O)CCCCCCCCCCCCCCC` [16:0 PE, 1,2-dipalmitoyl-sn-glycero-3-phosphoethanolamine] as the compound, how does the “phase behaviour of the film” value [1] read?
Answer: suitable properties

Question: With `CCCCCCCCCCCCCCCCCC(=O)OC[C@H](COP(=O)(O)OCCN)OC(=O)CCCCCCCCCCCCCCCCC` [18:0 PE, 1,2-distearoyl-sn-glycero-3-phosphoethanolamine] as the compound, how does the “phase behaviour of the film” value [1] read?
Answer: suitable properties

Question: And the “evaporation resistance of phospholipid films” value [2]?
Answer: highest evaporation resistance

Question: For `CCCCCCCCCCCCCCCCCC(=O)OC[C@H](COP(=O)(O)OC[C@H](N)C(=O)[O-])OC(=O)CCCCCCCCCCCCCCCCC.[Na+]` [18:0 PS, 1,2-distearoyl-sn-glycero-3-phospho-L-serine (sodium salt)], which “phase behaviour of the film” value [1] is on record?
Answer: suitable properties

Question: For `CCCCCCCC/C=C\CCCCCCCC(=O)OCCCCCCCCCCCCCCCCCC(=O)O` [18:0/18:1-OAHFA, 18-(oleoyloxy)octadecanoic acid], which “phase behaviour of the film” value [1] is on record?
Answer: does undergo a liquid to solid phase transition

Question: What about the “surface activity / spreading ability” value [1] of the same compound?
Answer: surface active lipids

Question: And the “Onset Tm1 ± SD” value [3]?
Answer: 54.92 ± 0.87

Question: And the “Peak Tm1 ± SD” value [3]?
Answer: 56.50 ± 0.64

Question: And the “evaporation resistance of OAHFA films” value [2]?
Answer: displays evaporation resistance; also recorded: highest evaporation resistance

Question: For `CCCCCCCC/C=C\CCCCCCCC(=O)OCCCCCCCCCCCCCCCCCCCC(=O)O` [20:0/18:1-OAHFA, 20-(oleoyloxy)eicosanoic acid], which “Onset Tm1 ± SD” value [3] is on record?
Answer: 41.65 ± 1.16

Question: What about the “Onset Tm2 ± SD” value [3] of the same compound?
Answer: 56.89 ± 1.42

Question: What about the “Peak Tm1 ± SD” value [3] of the same compound?
Answer: 46.54 ± 0.18

Question: What about the “Peak Tm2 ± SD” value [3] of the same compound?
Answer: 59.52 ± 0.38

Question: What about the “evaporation resistance of OAHFA films” value [2] of the same compound?
Answer: reasonable degree of evaporation resistance

Question: With `CCCCCCCC/C=C\CCCCCCCC(=O)OCCCCCCC/C=C\CCCCCCCCCCC(=O)O` [20:1/18:1-OAHFA, (12Z)-20-(oleoyloxy)eicos-12-enoic acid] as the compound, how does the “phase behaviour of the film” value [1] read?
Answer: does not undergo a phase transition

Question: What about the “surface activity / spreading ability” value [1] of the same compound?
Answer: surface active lipids

Question: What about the “evaporation resistance of OAHFA films” value [2] of the same compound?
Answer: significantly weaker evaporation-resistant properties

Question: For `CCCCCCCC/C=C\CCCCCCCC(=O)OCCCCCCCCCCCCCCCCCCCCCC(=O)O` [22:0/18:1-OAHFA, 22-(oleoyloxy)docosanoic acid], which “evaporation resistance of OAHFA films” value [2] is on record?
Answer: reasonable degree of evaporation resistance

Question: With `CCCCCCCC/C=C\CCCCCCCC(=O)OCCCCCCC/C=C\CCCCCCCCCCCCCCCCCCCC(=O)O` [29:1/18:1-OAHFA, (21Z)-29-(oleoyloxy)nonacos-21-enoic acid] as the compound, how does the “evaporation resistance of OAHFA films” value [2] read?
Answer: reasonable degree of evaporation resistance

Question: For `CCCCCCCC/C=C\CCCCCCCC(=O)OCCCCCCCCCCCCCCCCCCCCCC` [BO, behenyl oleate], which “Onset Tm1 ± SD” value [3] is on record?
Answer: 34.48 ± 0.05

Question: What about the “Peak Tm1 ± SD” value [3] of the same compound?
Answer: 36.74 ± 0.92

Question: Which “Onset Tm1 ± SD” value [3] does the source give for `CCCCCCCCCCCCCCCCCCCC(=O)OC[C@H](COP(=O)([O-])OCC[N+](C)(C)C)OC(=O)CCCCCCCCCCCCCCCCCCC` [DAPC, 1,2-diarachidoyl-sn-glycero-3-phosphatidylcholine] here?
Answer: 63.04 ± 0.21

Question: What about the “Peak Tm1 ± SD” value [3] of the same compound?
Answer: 64.87 ± 0.05

Question: Which results are given for `CCCCCCCCCCCCCC(=O)OC[C@H](COP(=O)([O-])OCC[N+](C)(C)C)OC(=O)CCCCCCCCCCCCC` [DMPC, 1,2-dimyristoyl-sn-glycero-3-phosphocholine]?
Answer: Onset Tm1 ± SD [3]: 17.37 ± 0.69; Peak Tm1 ± SD [3]: 22.74 ± 1.57

Question: With `CCCCCCCCCCCCCCCCCC(=O)OC[C@H](COP(=O)([O-])OCC[N+](C)(C)C)OC(=O)CCCCCCCCCCCCCCCCC` [DSPC, 1,2-distearoyl-sn-glycero-3-phosphocholine] as the compound, how does the “Onset Tm1 ± SD” value [3] read?
Answer: 50.13 ± 0.29

Question: What about the “Peak Tm1 ± SD” value [3] of the same compound?
Answer: 54.67 ± 0.18

Question: Which “Onset Tm1 ± SD” value [3] does the source give for `CCCCCCCC/C=C\CCCCCCCCOC(=O)CCCCCCCCCCCCCCCCC(=O)O` [R-18:0/18:1-OAHFA, 18-(oleyloxy)-18-oxo-octadecanoic acid] here?
Answer: 55.00 ± 0.87

Question: What about the “Onset Tm2 ± SD” value [3] of the same compound?
Answer: 63.20 ± 0.28

Question: And the “Peak Tm1 ± SD” value [3]?
Answer: 57.53 ± 0.95

Question: And the “Peak Tm2 ± SD” value [3]?
Answer: 63.88 ± 0.14

Question: What about the “evaporation resistance of OAHFA films” value [2] of the same compound?
Answer: reasonable degree of evaporation resistance

Question: Which “evaporation resistance of OAHFA films” value [2] does the source give for `CCCCCCCC/C=C\CCCCCCCCOC(=O)CCCCCCCCCCCCCCCCCCC(=O)O` [R-20:0/18:1-OAHFA, 20-(oleyloxy)-20-oxo-eicosanoic acid] here?
Answer: reasonable degree of evaporation resistance
